Tested on: rat heart tissue
Test: GENECALLING differential gene expression analysis after dosing of serotonin modulating agents
Assay type: in vivo, Sprague Dawley rats
Procedure: Control animals received sterile water or canola oil. The animals were sacrificed 24 hours following the last dose. Liver tissue was dissected from the animals, and total RNA was recovered from the dissected tissue. cDNA was prepared and the resulting samples were processed through using GENECALLING™ differential expression analysis as described in U.S. Pat. No. 5,871,697 and in Shimkets et al., Nature Biotechnology 17:798-803 (1999). The contents of these patents and publications are incorporated herein by reference in their entirety.
Thousands of gene fragments were initially found to be differentially expressed in rat heart tissue in response to serotonin modulating agents in. Genes fragments whose expression levels were modulated greater than ±1.5-fold were selected for further analysis.
Column 6 of Table 1, entitled “Function”, lists the type of classification assigned for the protein, based on its function. The 210 single nucleic acid sequences identified herein, are referred to herein as CARDIOTOX 1-210.

## CCN[C@@H](C)Cc1cccc(C(F)(F)F)c1 [dexfenfluramine]
CARDIOTOX 1
  Effects on Transcription Level: Novel gene fragment, 524 bp, 86% SI to mouse F-box protein FBX6b [AF176526]: +1.5 fold
CARDIOTOX 2
  Effects on Transcription Level: Novel gene fragment, 306 bp, 91% SI to mouse low density lipoprotein receptor related protein 4 [AB013874]: −1.8 fold
CARDIOTOX 3
  Effects on Transcription Level: Novel gene fragment, 540 bp, 97% SI to mouse skeletal muscle alpha-actin [X03766]: +2.3 fold
CARDIOTOX 4
  Effects on Transcription Level: Novel gene fragment, 80 bp: −1.6 fold
CARDIOTOX 5
  Effects on Transcription Level: Novel gene fragment, 957 bp, 99% SI to kidney injury associated moleculer HW036 [V80591]: −1.6 fold
CARDIOTOX 6
  Effects on Transcription Level: Novel gene fragment, 282 bp, 85% SI to human KIAA1515 protein [AB040948]: −1.7 fold
CARDIOTOX 7
  Effects on Transcription Level: Novel gene fragment, 405 bp, 88% SI to human 2-oxoglutarate dehydrogenase [D10523]: +1.5 fold
CARDIOTOX 8, GenBank AB010743
  Effects on Transcription Level: UCP2: −1.6 fold
CARDIOTOX 9, GenBank J03753
  Effects on Transcription Level: Plasma membrane Ca2 + ATPase-isoform 1: −1.6 fold
CARDIOTOX 10
  Effects on Transcription Level: Novel gene fragment, 242 bp, 97% SI to mouse HSP86 heat-shock protein [X16857]: +1.4 fold
CARDIOTOX 11
  Effects on Transcription Level: Novel gene fragment, 280 bp, 65% SI to human TRF1-interacting, ankyrin-related ADP-ribose polymerase [AF082556]: +1.4 fold
CARDIOTOX 12
  Effects on Transcription Level: Novel gene fragment, 348 bp, 88% SI to mouse Sec61 protein complex gamma subunit [U11027]: +1.3 fold
CARDIOTOX 13
  Effects on Transcription Level: Novel gene fragment 553 bp, 93% SI to mouse Sid329 [AB024984]: +1.4 fold
CARDIOTOX 14, GenBank AB020759
  Effects on Transcription Level: Kruppel-like transcription factor: +1.3 fold
CARDIOTOX 15, GenBank X62166
  Effects on Transcription Level: Ribosomal protein L3: +1.4 fold
CARDIOTOX 16, GenBank S78556
  Effects on Transcription Level: Glucose-regulated protein (GRP) 75: +1.4 fold
CARDIOTOX 17, GenBank M14050
  Effects on Transcription Level: Immunoglobulin heavy chain binding protein (BiP): +1.4 fold
CARDIOTOX 18, GenBank X56541
  Effects on Transcription Level: Membrane-spannining proteoglycan NG2: −1.4 fold
CARDIOTOX 19
  Effects on Transcription Level: Novel gene fragment, 1294 bp, 96% SI to mouse Sui 1 (elF) homolog [AF129888]: +1.6 fold
CARDIOTOX 20
  Effects on Transcription Level: Novel gene fragment, 723 bp, 85% SI to human translation initiation factor elF3 p40 subunit [U54559]: +1.6 fold
CARDIOTOX 21
  Effects on Transcription Level: Novel gene fragment, 1324 bp, 76% SI to human flavoprotein subunit of complex II [D30648]: +1.5 fold
CARDIOTOX 22
  Effects on Transcription Level: Novel gene fragment, 852 bp, 81% SI to human vacuolar proton-ATPase subunit M9.2 [Y15286]: +1.5 fold
CARDIOTOX 23
  Effects on Transcription Level: Novel gene fragment, 178 bp, 91% SI to mouse myosin light chain-2 isoform MLC-2a [S70785]: +1.6 fold
CARDIOTOX 24
  Effects on Transcription Level: Novel gene fragment, 167 bp, 90% SI to mouse Rab20 [X80332]: +1.7 fold
CARDIOTOX 25
  Effects on Transcription Level: Novel gene fragment, 1070 bp, 80% SI to human muscle-specific protein [AF249873]: +1.5 fold
CARDIOTOX 26
  Effects on Transcription Level: Novel gene fragment, 1143 bp, 82% SI to human sarcoma amplified sequence (SAS) [U01160]: +1.7 fold
CARDIOTOX 27
  Effects on Transcription Level: Novel gene fragment, 74 bp,75% SI to human secreted protein [X30160] (from patent database)/[X97578] (from patent database)/potential cytokine): +1.5 fold
CARDIOTOX 28
  Effects on Transcription Level: Novel gene fragment, 408 bp, 90% SI to human CGI-07 protein [AF132941]: +1.6 fold
CARDIOTOX 29
  Effects on Transcription Level: Novel gene fragment, 618 bp, 95% SI to rat progression related cDNA, ZNPE-120 3′ end partial sequence [patent database X90805]: +1.5 fold
CARDIOTOX 30
  Effects on Transcription Level: Novel gene fragment, 717 bp: +1.5 fold
CARDIOTOX 31
  Effects on Transcription Level: Novel gene fragment, 546 bp: +1.8 fold
CARDIOTOX 32
  Effects on Transcription Level: Novel gene fragment, 920 bp, 91% SI to human HSPC061 [AF161546]: +1.5 fold
CARDIOTOX 33
  Effects on Transcription Level: Novel gene fragment, 203 bp, 92% SI to rabbit sarcoplasmic reticulum glycoprotein [J04480]: −1.7 fold
CARDIOTOX 34
  Effects on Transcription Level: Novel gene fragment, 178 bp, 68% SI to mouse IgG receptor (beta-Fc-gamma-RII)[M63159]: +1.6 fold
CARDIOTOX 35, GenBank X87107
  Effects on Transcription Level: Ribosomal protein L6: +1.6 fold
CARDIOTOX 36, GenBank U31935
  Effects on Transcription Level: CAP2 protein (adenylyl cyclase-associated protein 2): +2.0 fold
CARDIOTOX 37, GenBank M63837
  Effects on Transcription Level: Alpha-platelet-derived growth factor receptor: +1.6 fold
CARDIOTOX 38, GenBank X74402
  Effects on Transcription Level: Rab GD1 alpha protein: −1.6 fold
CARDIOTOX 39, GenBank Y08355
  Effects on Transcription Level: PKC-zeta-interacting protein: +1.6 fold
CARDIOTOX 40, GenBank X65198
  Effects on Transcription Level: ERK or MAP kinase: +1.5 fold
CARDIOTOX 41, GenBank U37486
  Effects on Transcription Level: Peroxisomal multifunctional enzyme type II: +1.5 fold
CARDIOTOX 42, GenBank D30035
  Effects on Transcription Level: HBP23 (heme-binding protein 23 kDa): +1.7 fold
CARDIOTOX 43, GenBank U90725
  Effects on Transcription Level: Caveolae-associated protein: +3.0 fold
CARDIOTOX 44, GenBank AF025506
  Effects on Transcription Level: Prenylated rab acceptor 1 (PRA1): +1.5 fold
CARDIOTOX 45
  Effects on Transcription Level: Novel gene fragment, 337 bp, 88% SI to rabbit cardiac ryanodine receptor (RyR-2)[U50465]: −1.7 fold
CARDIOTOX 46
  Effects on Transcription Level: Novel gene fragment, 81 bp, 85% SI to human titin [X90568]: −2.2 fold
CARDIOTOX 47
  Effects on Transcription Level: Novel gene fragment, 428 bp, 86% SI to human titin [X90568]: −2.0 fold
CARDIOTOX 48
  Effects on Transcription Level: Novel gene fragment, 374 bp, 88% SI to human titin [X90568]: −2.3 fold
CARDIOTOX 49
  Effects on Transcription Level: Novel gene fragment, 428 bp, 85% SI to human titin [90568]: −2.2 fold
CARDIOTOX 50
  Effects on Transcription Level: Novel gene fragment, 1216 bp, 93% SI to mouse mircotubule-associated protein (MAP) 1B protein [AF115776]: −1.9 fold
CARDIOTOX 51
  Effects on Transcription Level: Novel gene fragment, 1115 bp, 83% SI to human KIAA0549 protein [AB011121]: −2.0 fold
CARDIOTOX 52
  Effects on Transcription Level: Novel gene fragment, 153 bp: −1.7 fold
CARDIOTOX 53
  Effects on Transcription Level: Novel gene fragment, 89 bp, 93% SI to human putative glialblastoma cell differentiation-related protein (GBDR1) [AF068195]: −1.6 fold
CARDIOTOX 54, GenBank U61266
  Effects on Transcription Level: Rho-associated kinase beta: −1.9 fold
CARDIOTOX 55, GenBank D13062
  Effects on Transcription Level: Adenylate kinase 3: +1.5 fold
CARDIOTOX 56, GenBank AF049878
  Effects on Transcription Level: Amyloid beta-peptide binding protein: +1.5 fold
CARDIOTOX 57, GenBank D12771
  Effects on Transcription Level: Mitochondrial adenine nuleotide translocator: +1.5 fold
CARDIOTOX 58
  Effects on Transcription Level: Novel gene fragment, 710 bp, 94% SI to mouse chromatin structural protein homolog Supt5 hp (Supt5 h)[U88539]: +3.8 fold
CARDIOTOX 60
  Effects on Transcription Level: Novel gene fragment, 186 bp, 66% SI to human N-acetylglucosaminyltransferase 1 (GlcNAc-TI)[M55621]: −1.7 fold
CARDIOTOX 61
  Effects on Transcription Level: Novel gene fragment, 238 bp, 95% SI to mouse MAP kinase-activated protein kinase 2 [X76850]: −2.1 fold
CARDIOTOX 62
  Effects on Transcription Level: Novel gene fragment, 173 bp, 70% SI to G protein-coupled receptor kinase GRK4 [X97568]: −6.1 fold
CARDIOTOX 63
  Effects on Transcription Level: Novel gene fragment, 133 bp, 77% SI to human apoptosis related protein hSARP3 [patent database: V19114]: −3.4 fold
CARDIOTOX 64
  Effects on Transcription Level: Novel gene fragment, 477 bp, 98% SI to peroxisomal phytanoyl-CoA hydroxylase (PHYH) [AF121345]: +5.0 fold
CARDIOTOX 65
  Effects on Transcription Level: Novel gene fragment, 413 bp, 95% SI to mouse dihydrolipoamide dehydrogenase (Dld) [U73445]: +1.9 fold
CARDIOTOX 66
  Effects on Transcription Level: Novel gene fragment, 726 bp, 76% SI to human succinate dehydrogenase flavoprotein subunit (SDH) [L21936]: −4.1 fold
CARDIOTOX 67
  Effects on Transcription Level: Novel gene fragment, 440 bp, 92% SI to mouse cytochrome c oxidase Vllc [X52940]: +3.6 fold
CARDIOTOX 68
  Effects on Transcription Level: Novel gene fragment, 276 bp, 80% SI to human titin [X90568]: −11.9 fold
CARDIOTOX 69
  Effects on Transcription Level: Novel gene fragment, 149 bp, 70% SI to human titin [X90568]: −5.5 fold
CARDIOTOX 70
  Effects on Transcription Level: Novel gene fragment, 467 bp, 94% SI to mouse gelsolin [J04953]: −3.2 fold
CARDIOTOX 71
  Effects on Transcription Level: Novel gene fragment, 535 bp, 90% SI to mouse slow/cardiac troponin C [M29793]: −2.0 fold

From US20040005537A1, “Method of identifying toxic agents using differential gene expression” (priority 2000, published 2004)
